Laboratory results taken from patent US5340818A, “Methods and compositions for inhibiting tumor cell growth” (priority 1993, dated 1994).
“And” between values parts separate entries of the source, which are not always exact repeats. Equal entries are not always repeated. Where two headings read alike, the source gives them in different places.

Assays:
Type in all cases: cell-based, human
[1] = tested on: DNA synthesis in HL-60 cells; assay: Inhibition of [3H-methyl]dThd incorporation into DNA of HL-60 cells; conditions: for inhibition at 30 µg/mL: Homo sapiens, HL-60, at 0.03 mg/mL, read-out: % Inhibition of Precursor Incorporation, DNA; for inhibition of DNA synthesis, in words: HL-60, 0.03 mg/ml; for % Inhibition of Precursor Incorporation, DNA: at 0.03 mg/mL
Method: (§1) For the precursor incorporation studies, each compound (in 0.3% dimethylsulfoxide) was preincubated with HL-60 cells (a human promyelocytic leukemic cell line) 2.2×10^6 /ml, for 15 min prior to the addition of the labeled precursor (obtained from ICN Radiochemicals, Irvine, Calif.) and then incubated for 30 min. The precursors used for incorporation into DNA, RNA and protein were [^3 H-methyl]dThd (1 μCi, 0.15 nmole/ml), [5-^3 H]Cyd (5 μCi, 0.23 nmol/ml), and [2,3,4,5-^3 H]L-Leu (0.5 μCi, 0.004 nmol/ml), respectively. Incorporation of radioactivity in the absence of a plant compound and in the presence of dimethylsulfoxide was used as a control.
Human promyelocytic cells (HL-60) were incubated with [^3 H-methyl]dTHDin the presence and absence of a plant alkaloid.

[2] = tested on: RNA synthesis in HL-60 cells; assay: Inhibition of [5-3H]Cyd incorporation into RNA of HL-60 cells; conditions: Homo sapiens, HL-60, 0.5 h
Method: as §1, with “control. The control values for incorporation into DNA, RNA and protein were 8,500, 5,600 and 1,700 cpm/10^6 cells, respectively. The incubation conditions and the procedures for isolating DNA, RNA and protein fractions have been previously described (Chou, T. -C., et al., Cancer Res., 43:3074-3079 (1983)) .” for “control.”
(§2) HL-60 cells were incubated with [5-^3 H]Cyd or [2,3,4,5-^3 H]L-Leu in the presence and absence of alkaloids (0.03 mg/ml) in order to find the effects of the alkaloid on the incorporation of labeled precursors into RNA or protein. […] Over 90% of RNA and protein biosynthesis were inhibited by compounds 11, 16, 17, 22, 28, 29and 30 (Table 1). […] In most cases, the amount required to inhibit precursor incorporation into DNA was less than that to inhibit precursor incorporation into RNA or protein (i.e. DNA synthesis is inhibited most potently).

HL-60 cells = assay: HL-60 cell growth inhibition, 72 h; conditions: HL-60, 72 h; for IC50: read-out: Cell Growth Inhibition, IC50
Method: For growth inhibition studies, HL-60 cells (1.5×10^5 /ml) were grown in RPMI 1640 media (GIBCO, Grand Island, N.Y.) at 37° C. in humidified 5% CO2 for 72 h. Viable cells were determined using trypan blue exclusion and counted in a hemocytometer. The fractional inhibition for each compound concentration (0.0025-0.05 mg/ml in 0.1% dimethylsulfoxide) was analyzed with the median-effect plot using a computer program (Chou, T. -C and P. Talalay, Adv. Enzyme Regul., 22:27-55 (1984); Chou, J. and T. -C. thou, Dose-Effect analysis with microcomputers: Quantitation of ED50, LD50, synergism, antagonism, low-dose risk, receptor ligand binding and enzyme kinetics. A computer software disk for Apple II series or IBM-PC and manual. Elsevier Science Publishers, Elsevier-BioSoft, Cambridge, United Kingdom (1986)). The median-effect concentration (IC50) was determined automatically for three to five dose-effect levels. Cell growth in the absence of plant compound and in the presence of dimethylsulfoxide was used as a control. Dimethylsulfoxide alone inhibited cell growth 3.9%±1.5% during the 72 h incubation period. Those data with negative values represent activations.

[3] = tested on: protein synthesis in HL-60 cells; assay: Inhibition of [2,3,4,5-3H]L-Leu incorporation into protein of HL-60 cells; conditions: Homo sapiens
Method: as §1, with “control. The control values for incorporation into DNA, RNA and protein were 8,500, 5,600 and 1,700 cpm/10^6 cells, respectively. The incubation conditions and the procedures for isolating DNA, RNA and protein fractions have been previously described (Chou, T. -C., et al., Cancer Res., 43:3074-3079 (1983)) .” for “control.”
as §2

[4] = at 0.03 mg/mL, read-out: % Inhibition of Precursor Incorporation, RNA
[5] = HL-60, at 0.03 mg/mL, read-out: % Inhibition of Precursor Incorporation, Protein
[6] = read-out: % Inhibition of Precursor Incorporation, RNA, at 0.03 mg/mL
[7] = HL-60, read-out: % Inhibition of Precursor Incorporation, Protein, at 0.03 mg/mL

IC50 (HL-60 cells; Homo sapiens)	Cell Growth Inhibition, IC50 (HL-60 cells) [mg/mL]	IC50 (HL-60 cells) [µM]	Compound	inhibition at 30 µg/mL [1] [%]	inhibition at 30 µg/mL [2, 4] [%]	inhibition at 30 µg/mL [3, 5] [%]	inhibition of DNA synthesis, in words [1]	cell growth inhibition, in words (HL-60 cells)	inhibition at 30 µg/mL [2, 6] [%]	inhibition at 30 µg/mL [3, 7] [%]	% Inhibition of Precursor Incorporation, DNA [1] [%]
> 40 µg/mL and > 127 µM			COc1cc(O)c2c(=O)c3ccc(OC)c(OC)c3n(C)c2c1	34.8	95	28.3					
20.6 µg/mL and 90.7 µM			O=c1c2ccccc2[nH]c2cc(O)cc(O)c12 [Compound 4, 1,3-Dihydroxy-acridone]	76.7	50.6	62.8	no significant activity				
> 40 µg/mL and > 129 µM			CC(=O)Oc1cc(OC(C)=O)c2c(=O)c3ccccc3[nH]c2c1 [Compound 5, 1,3-O,O-Diacetyl-acridone]	39.7	24.9	26.9	no significant activity				
> 40 µg/mL and > 123 µM			CC(=O)Oc1cc(OC(C)=O)c2c(=O)c3ccccc3n(C)c2c1 [Compound 6]	23	2.7	-12.8					
> 40 µg/mL and > 157 µM			COc1cc(O)c2c(=O)c3ccccc3n(C)c2c1 [Compound 7, 1-Hydroxy-3-methoxy N-methyl acridone]	48.4	39.5	25.2					
> 40 µg/mL and > 157 µM			COc1cc(O)cc2c1c(=O)c1ccccc1n2C [Compound 8, 1-Methoxy-3-Hydroxy N-methyl acridone]	53.3	51.2	25.7					
30.5 µg/mL and 103 µM			COc1cc(OC(C)=O)cc2c1c(=O)c1ccccc1n2C [Compound 9, 3-O-Acetyl-1-methoxy-R-methyl acridone]	71.1	61.6	30					
9.2 µg/mL and 34.2 µM			COc1cc(OC)c2c(=O)c3ccccc3n(C)c2c1 [Compound 10, 1,3-Dimethoxy-N-methyl acridone]	> 90	65.8	64.4	excellent inhibitory effect				
8.2 µg/mL and 26.5 µM			CC(C)=CCc1c(O)cc(O)c2c(=O)c3ccccc3n(C)c12 [Compound 11, Glycocitrine-II]	99.5	97.1	95.3	potent inhibitor				
> 40 µg/mL and > 124 µM			COc1cc(O)c2c(=O)c3ccccc3n(C)c2c1CC=C(C)C [Compound 12, 3-O-methyl-glycocitrine-II]	61.8	53.8	50.3	only moderate inhibitory activity				
1.4 µg/mL and 4.1 µM			COc1cc(O)c2c(=O)c3cccc(O)c3n(C)c2c1CC=C(C)C [Compound 13, Glycocitrine-I]	97.5	43.9	41.1		significant activity against leukemic cells in vitro			
5.6 µg/mL and 13.2 µM			COc1cc(OC(C)=O)c2c(=O)c3cccc(OC(C)=O)c3n(C)c2c1CC=C(C)C [Compound 14, OO-Diacetyl-glycocitrine-I]	94.7	63.8	89.8		significant activity against leukemic cells in vitro			
13.3 µg/mL and 40.4 µM			COc1cc(OC)c2c(=O)c3cccc(OC)c3n(C)c2c1OC [Compound 18, 1,3,4,5-Tetra-methoxy-N-methyl acridone]	91.5	57	71.8					
> 40 µg/mL and > 133 µM			COc1ccc2c(=O)c3c(O)cc(O)cc3n(C)c2c1OC [Compound 19, Grandisine-II]	76.5	96	27.3					
38.7 µg/mL and 113 µM			COc1ccc2c(=O)c3c(O)cc(OC(C)=O)cc3n(C)c2c1OC [Compound 20, O-Acetyl-grandisine-II]	24.4	77	-5.6					
> 40 µg/mL and > 133 µM			COc1cc(O)c2c(=O)c3ccc(OC)c(O)c3n(C)c2c1 [Compound 21, Grandisine-I]	71.7	69.5	22.8					
	> 0.04	> 133	COc1cc(O)c2c(=O)c3ccc(O)c(OC)c3n(C)c2c1 [Compound 22, Citpressine-I]								65.0
22 µg/mL and 66.8 µM			COc1cc(OC)c2c(=O)c3ccc(OC)c(OC)c3n(C)c2c1 [Compound 24, 1-O-Methyl-citpressine-II]	93.1	67.3	75.6					93
3.6 µg/mL and 10.1 µM			COc1c(O)ccc2c(=O)c3c(O)c(CC=C(C)C)c(O)cc3n(C)c12 [Compound 25, Buntanine]	96.6	29.8	40.1					
36 µg/mL and 94.5 µM			COc1c(O)ccc2c(=O)c3c(O)cc(O)c(CC=C(C)C)c3n(C)c12 [Compound 27, Prenylcitpressine]	52.4	21.1	-15.7					
2.2 µg/mL and 5 µM			COc1c(OC(C)=O)ccc2c(=O)c3c(O)cc(OC(C)=O)c(CC=C(C)C)c3n(C)c12 [Compound 28, 3,6-O,O-Diacetyl-prenylcitpressine]	96.8	96.1	89.6		significant activity against leukemic cells in vitro			

Compound	IC50 (HL-60 cells; Homo sapiens)	Cell Growth Inhibition, IC50 (HL-60 cells) [mg/mL]	IC50 (HL-60 cells) [µM]	inhibition at 30 µg/mL [1] [%]	inhibition at 30 µg/mL [2, 4] [%]	inhibition at 30 µg/mL [3, 5] [%]	inhibition of DNA synthesis, in words [1]	cell growth inhibition, in words (HL-60 cells)	inhibition at 30 µg/mL [2, 6] [%]	inhibition at 30 µg/mL [3, 7] [%]	% Inhibition of Precursor Incorporation, DNA [1] [%]
COc1c(O)cc(O)c2c(=O)c3cccc(O)c3n(C)c12 [Compound 15, Citrusinine-II]	17 µg/mL and 59.2 µM			88.5					91.7	54.3	
COc1cc(O)c2c(=O)c3cccc(O)c3n(C)c2c1OC [Compound 16, Citrusinine-I]	2.6 µg/mL and 8.6 µM			97				significant activity against leukemic cells in vitro	96.5	87	
CC(C)=CCc1c(O)c(CC=C(C)C)c2c(c1O)c(=O)c1cccc(O)c1n2C [Compound 26, N-methyl-atalaphylline]	5.4 µg/mL and 13.7 µM			99.6				significant activity against leukemic cells in vitro	28.2	44.3	
